In PMC3961306, “Comparison of the Cancer Gene Targeting and Biochemical Selectivities of All Targeted Kinase Inhibitors Approved for Clinical Use” (PLoS ONE, 2014):

Columns and labels:
Assay in all cases: Kinase profiling in a biochemical assay panel (mobility shift assays and ELISA), %-inhibition at 1 μM; selectivity entropy
[1] = molecular target: panel of more than 300 wild-type and mutant kinases (313 kinase panel) (Homo sapiens, UniProt Q16288)
[2] = molecular target: T1, panel of more than 300 wild-type and mutant kinases (313 kinase panel) (Homo sapiens, UniProt P51813)
T1 sequence (P51813 1-675): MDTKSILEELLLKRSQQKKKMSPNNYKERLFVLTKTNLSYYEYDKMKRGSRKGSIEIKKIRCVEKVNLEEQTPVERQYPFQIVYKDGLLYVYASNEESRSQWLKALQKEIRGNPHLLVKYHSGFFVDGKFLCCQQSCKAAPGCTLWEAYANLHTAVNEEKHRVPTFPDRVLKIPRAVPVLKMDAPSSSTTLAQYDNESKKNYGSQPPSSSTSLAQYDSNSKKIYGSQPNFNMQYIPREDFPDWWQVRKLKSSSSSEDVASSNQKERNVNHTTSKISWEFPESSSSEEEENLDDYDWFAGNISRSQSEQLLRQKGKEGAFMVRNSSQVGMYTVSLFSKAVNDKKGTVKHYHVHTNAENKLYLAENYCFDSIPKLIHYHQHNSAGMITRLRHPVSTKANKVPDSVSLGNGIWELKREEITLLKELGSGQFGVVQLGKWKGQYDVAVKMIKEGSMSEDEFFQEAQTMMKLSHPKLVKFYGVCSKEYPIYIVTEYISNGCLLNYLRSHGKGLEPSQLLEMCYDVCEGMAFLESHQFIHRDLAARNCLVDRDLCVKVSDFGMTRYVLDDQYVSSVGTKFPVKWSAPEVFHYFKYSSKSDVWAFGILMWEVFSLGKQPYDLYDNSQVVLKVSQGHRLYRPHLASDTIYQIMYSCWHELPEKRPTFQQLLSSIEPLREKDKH

[3] = molecular target: panel of more than 300 wild-type and mutant kinases (313 kinase panel) (Homo sapiens, UniProt Q8IY84)
[4] = molecular target: panel of more than 300 wild-type and mutant kinases (313 kinase panel) (Homo sapiens, UniProt P48730)
[5] = molecular target: panel of more than 300 wild-type and mutant kinases (313 kinase panel) (Homo sapiens, UniProt P49759)
panel of more than 300 wild-type and mutant kinases (313 kinase panel) (Homo sapiens, UniProt P49759), sequence (P49759 whole entry, change not shown): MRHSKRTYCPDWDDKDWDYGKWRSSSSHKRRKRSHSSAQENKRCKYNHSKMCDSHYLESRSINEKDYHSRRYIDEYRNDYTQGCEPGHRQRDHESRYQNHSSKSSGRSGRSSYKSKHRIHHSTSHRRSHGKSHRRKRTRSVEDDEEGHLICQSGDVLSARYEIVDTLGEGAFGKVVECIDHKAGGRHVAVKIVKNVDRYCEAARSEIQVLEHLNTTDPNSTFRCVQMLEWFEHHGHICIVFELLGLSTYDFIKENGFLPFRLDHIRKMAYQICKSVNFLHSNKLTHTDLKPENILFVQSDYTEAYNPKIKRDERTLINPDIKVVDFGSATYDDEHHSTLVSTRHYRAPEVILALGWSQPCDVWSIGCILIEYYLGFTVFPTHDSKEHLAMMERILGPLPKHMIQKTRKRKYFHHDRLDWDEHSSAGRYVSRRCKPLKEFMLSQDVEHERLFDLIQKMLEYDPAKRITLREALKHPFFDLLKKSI

[6] = molecular target: panel of more than 300 wild-type and mutant kinases (313 kinase panel) (Homo sapiens, UniProt O75116)
[7] = molecular target: panel of more than 300 wild-type and mutant kinases (313 kinase panel) (Homo sapiens, UniProt P49760)
[8] = molecular target: panel of more than 300 wild-type and mutant kinases (313 kinase panel) (Homo sapiens, UniProt Q9P286)
panel of more than 300 wild-type and mutant kinases (313 kinase panel) (Homo sapiens, UniProt Q9P286), sequence (Q9P286 whole entry, change not shown): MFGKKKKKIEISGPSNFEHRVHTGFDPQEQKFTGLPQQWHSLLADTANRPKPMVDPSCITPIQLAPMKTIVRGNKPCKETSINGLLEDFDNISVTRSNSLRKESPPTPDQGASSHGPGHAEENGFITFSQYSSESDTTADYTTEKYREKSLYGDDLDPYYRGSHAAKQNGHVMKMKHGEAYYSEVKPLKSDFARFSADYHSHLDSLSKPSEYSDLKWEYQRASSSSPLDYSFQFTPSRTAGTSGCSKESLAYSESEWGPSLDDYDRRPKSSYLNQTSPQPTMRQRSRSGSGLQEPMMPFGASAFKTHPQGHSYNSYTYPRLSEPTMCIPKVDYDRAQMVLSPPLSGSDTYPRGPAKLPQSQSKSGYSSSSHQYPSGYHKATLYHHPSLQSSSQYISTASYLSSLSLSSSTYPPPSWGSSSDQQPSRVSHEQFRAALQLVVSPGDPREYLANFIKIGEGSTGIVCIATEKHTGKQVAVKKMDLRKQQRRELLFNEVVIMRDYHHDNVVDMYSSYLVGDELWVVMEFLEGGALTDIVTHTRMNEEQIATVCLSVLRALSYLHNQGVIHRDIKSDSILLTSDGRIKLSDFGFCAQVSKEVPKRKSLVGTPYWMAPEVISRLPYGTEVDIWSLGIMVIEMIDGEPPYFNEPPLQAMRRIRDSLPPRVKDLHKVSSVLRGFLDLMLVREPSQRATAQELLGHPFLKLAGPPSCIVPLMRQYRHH

[9] = molecular target: panel of more than 300 wild-type and mutant kinases (313 kinase panel) (Homo sapiens, UniProt Q13153)
[10] = molecular target: panel of more than 300 wild-type and mutant kinases (313 kinase panel) (Homo sapiens, UniProt P50750)
[11] = molecular target: panel of more than 300 wild-type and mutant kinases (313 kinase panel) (Homo sapiens, UniProt Q14680)
[12] = molecular target: T2, panel of more than 300 wild-type and mutant kinases (313 kinase panel) (Homo sapiens, UniProt O00418)
T2 sequence (O00418 1-725): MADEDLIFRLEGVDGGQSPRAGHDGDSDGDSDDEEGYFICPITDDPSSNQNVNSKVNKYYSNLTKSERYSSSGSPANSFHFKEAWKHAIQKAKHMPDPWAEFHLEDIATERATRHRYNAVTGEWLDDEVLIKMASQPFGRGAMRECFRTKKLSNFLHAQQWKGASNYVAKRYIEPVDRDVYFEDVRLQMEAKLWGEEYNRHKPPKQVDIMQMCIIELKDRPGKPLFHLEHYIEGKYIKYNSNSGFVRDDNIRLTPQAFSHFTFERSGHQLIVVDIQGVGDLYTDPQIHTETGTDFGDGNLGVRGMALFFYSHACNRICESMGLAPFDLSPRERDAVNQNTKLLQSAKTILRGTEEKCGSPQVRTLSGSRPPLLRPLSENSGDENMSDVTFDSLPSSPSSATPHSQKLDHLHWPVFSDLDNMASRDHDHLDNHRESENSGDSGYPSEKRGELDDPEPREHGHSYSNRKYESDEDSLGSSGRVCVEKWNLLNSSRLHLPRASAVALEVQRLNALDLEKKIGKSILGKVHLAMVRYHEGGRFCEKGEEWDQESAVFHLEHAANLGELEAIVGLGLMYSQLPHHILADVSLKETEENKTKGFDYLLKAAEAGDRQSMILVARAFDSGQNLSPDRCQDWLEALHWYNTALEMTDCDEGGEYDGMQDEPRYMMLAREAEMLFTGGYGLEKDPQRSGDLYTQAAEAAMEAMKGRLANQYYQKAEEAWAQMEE

[13] = molecular target: panel of more than 300 wild-type and mutant kinases (313 kinase panel) (Homo sapiens, UniProt P07948)
[14] = kinase CDK9/CycT1, 1 μM compound

Structure (SMILES): CNC(=O)c1cc(Oc2ccc(NC(=O)Nc3ccc(Cl)c(C(F)(F)F)c3)c(F)c2)ccn1 [regorafenib]
- %-inhibition of TRKC ([1]; kinase TRKC, 1 μM): 93%
- %-inhibition, BMX ([2]; kinase BMX, 1 μM compound): -1.77%
- %-inhibition of MGC42105 ([3]; kinase MGC42105, 1 μM): -22%
- %-inhibition, CK1δ ([4]; kinase CK1δ, 1 μM compound): -6%
- %-inhibition, CLK1 ([5]; kinase CLK1, 1 μM compound): 38%
- %-inhibition of ROCK2 ([6]; kinase ROCK2, 1 μM): 2.65%
- %-inhibition, CLK2 ([7]; kinase CLK2, 1 μM compound): -24%
- %-inhibition of PAK5 ([8]; kinase PAK5, 1 μM): -8%
- %-inhibition of PAK1 ([9]; kinase PAK1, 1 μM): -8%
- %-inhibition, CDK9/CycT1 [10, 14]: 1%
- %-inhibition of MELK ([11]; kinase MELK, compound at 1 μM): -4.52%
- %-inhibition of EEF2K ([12]; kinase EEF2K, compound at 1 μM): -11%
- %-inhibition of LYNa ([13]; kinase LYNa, compound at 1 μM): 89%

Structure (SMILES): CO[C@H]1C[C@@H]2CC[C@@H](C)[C@@](O)(O2)C(=O)C(=O)N2CCCC[C@H]2C(=O)O[C@H]([C@H](C)C[C@@H]2CC[C@@H](OCCO)[C@H](OC)C2)CC(=O)[C@H](C)/C=C(\C)[C@@H](O)[C@@H](OC)C(=O)[C@H](C)C[C@H](C)/C=C/C=C/C=C/1C [everolimus]
- %-inhibition of TRKC ([1]; kinase TRKC, 1 μM): -5%
- %-inhibition, BMX ([2]; kinase BMX, 1 μM compound): -5.3%
- %-inhibition of MGC42105 ([3]; kinase MGC42105, 1 μM): -4%
- %-inhibition, CK1δ ([4]; kinase CK1δ, 1 μM compound): -4.27%
- %-inhibition, CLK1 ([5]; kinase CLK1, 1 μM compound): -7.39%
- %-inhibition of ROCK2 ([6]; kinase ROCK2, 1 μM): -5.49%
- %-inhibition, CLK2 ([7]; kinase CLK2, 1 μM compound): -17%
- %-inhibition of PAK5 ([8]; kinase PAK5, 1 μM): -1.87%
- %-inhibition of PAK1 ([9]; kinase PAK1, 1 μM): -5.39%
- %-inhibition, CDK9/CycT1 [10, 14]: -4%
- %-inhibition of MELK ([11]; kinase MELK, compound at 1 μM): -3.33%
- %-inhibition of EEF2K ([12]; kinase EEF2K, compound at 1 μM): -14%
- %-inhibition of LYNa ([13]; kinase LYNa, compound at 1 μM): -1.27%

Structure (SMILES): COc1cc2nccc(Oc3ccc(NC(=O)C4(C(=O)Nc5ccc(F)cc5)CC4)cc3)c2cc1OC [cabozantinib]
- %-inhibition of TRKC ([1]; kinase TRKC, 1 μM): 98%
- %-inhibition, BMX ([2]; kinase BMX, 1 μM compound): 53%
- %-inhibition of MGC42105 ([3]; kinase MGC42105, 1 μM): -8%
- %-inhibition, CK1δ ([4]; kinase CK1δ, 1 μM compound): 0.0601%
- %-inhibition, CLK1 ([5]; kinase CLK1, 1 μM compound): 7%
- %-inhibition of ROCK2 ([6]; kinase ROCK2, 1 μM): 15%
- %-inhibition, CLK2 ([7]; kinase CLK2, 1 μM compound): -5.26%
- %-inhibition of PAK5 ([8]; kinase PAK5, 1 μM): -2.51%
- %-inhibition of PAK1 ([9]; kinase PAK1, 1 μM): -2.55%
- %-inhibition, CDK9/CycT1 [10, 14]: -5.37%
- %-inhibition of MELK ([11]; kinase MELK, compound at 1 μM): 54%
- %-inhibition of EEF2K ([12]; kinase EEF2K, compound at 1 μM): -4.74%
- %-inhibition of LYNa ([13]; kinase LYNa, compound at 1 μM): 100%

Structure (SMILES): Cc1ccc(Nc2nccc(N(C)c3ccc4c(C)n(C)nc4c3)n2)cc1S(N)(=O)=O [pazopanib]
- %-inhibition of TRKC ([1]; kinase TRKC, 1 μM): 21%
- %-inhibition, BMX ([2]; kinase BMX, 1 μM compound): 24%
- %-inhibition of MGC42105 ([3]; kinase MGC42105, 1 μM): 0.318%
- %-inhibition, CK1δ ([4]; kinase CK1δ, 1 μM compound): 1.13%
- %-inhibition, CLK1 ([5]; kinase CLK1, 1 μM compound): 7.57%
- %-inhibition of ROCK2 ([6]; kinase ROCK2, 1 μM): -0.78%
- %-inhibition, CLK2 ([7]; kinase CLK2, 1 μM compound): 0.914%
- %-inhibition of PAK5 ([8]; kinase PAK5, 1 μM): 2%
- %-inhibition of PAK1 ([9]; kinase PAK1, 1 μM): -0.494%
- %-inhibition, CDK9/CycT1 [10, 14]: 31%
- %-inhibition of MELK ([11]; kinase MELK, compound at 1 μM): -0.665%
- %-inhibition of EEF2K ([12]; kinase EEF2K, compound at 1 μM): -3%
- %-inhibition of LYNa ([13]; kinase LYNa, compound at 1 μM): 84%

Structure (SMILES): CCCS(=O)(=O)Nc1ccc(F)c(C(=O)c2c[nH]c3ncc(-c4ccc(Cl)cc4)cc23)c1F [vemurafenib]
- %-inhibition of TRKC ([1]; kinase TRKC, 1 μM): 5%
- %-inhibition, BMX ([2]; kinase BMX, 1 μM compound): 24%
- %-inhibition of MGC42105 ([3]; kinase MGC42105, 1 μM): -8%
- %-inhibition, CK1δ ([4]; kinase CK1δ, 1 μM compound): -3%
- %-inhibition, CLK1 ([5]; kinase CLK1, 1 μM compound): 5%
- %-inhibition of ROCK2 ([6]; kinase ROCK2, 1 μM): -0.177%
- %-inhibition, CLK2 ([7]; kinase CLK2, 1 μM compound): -13%
- %-inhibition of PAK5 ([8]; kinase PAK5, 1 μM): -1.23%
- %-inhibition of PAK1 ([9]; kinase PAK1, 1 μM): -5%
- %-inhibition, CDK9/CycT1 [10, 14]: 1.33%
- %-inhibition of MELK ([11]; kinase MELK, compound at 1 μM): 4%
- %-inhibition of EEF2K ([12]; kinase EEF2K, compound at 1 μM): -5%
- %-inhibition of LYNa ([13]; kinase LYNa, compound at 1 μM): 73%

Structure (SMILES): C#Cc1cccc(Nc2ncnc3cc(OCCOC)c(OCCOC)cc23)c1 [erlotinib]
- %-inhibition of TRKC ([1]; 1 µM): 13%
- %-inhibition, BMX ([2]; 1 µM): 17%
- %-inhibition of MGC42105 ([3]; 1 µM): 4%
- %-inhibition, CK1δ ([4]; 1 µM): -4%
- %-inhibition, CLK1 ([5]; 1 µM): 21%
- %-inhibition of ROCK2 ([6]; 1 µM): 4.44%
- %-inhibition, CLK2 ([7]; 1 µM): 8%
- %-inhibition of PAK5 ([8]; 1 µM): -0.141%
- %-inhibition of PAK1 ([9]; 1 µM): 6.37%
- %-inhibition, CDK9/CycT1 ([10]; 1 µM): 2.63%
- %-inhibition of MELK ([11]; 1 µM): 2.69%
- %-inhibition of EEF2K ([12]; 1 µM): -0.225%
- %-inhibition of LYNa ([13]; 1 µM): 64%

Structure (SMILES): CC(=O)Nc1cccc(-n2c(=O)n(C3CC3)c(=O)c3c(Nc4ccc(I)cc4F)n(C)c(=O)c(C)c32)c1 [trametinib]
- %-inhibition of TRKC ([1]; kinase TRKC, 1 μM): -7.43%
- %-inhibition, BMX ([2]; kinase BMX, 1 μM compound): -3.22%
- %-inhibition of MGC42105 ([3]; kinase MGC42105, 1 μM): 1.39%
- %-inhibition, CK1δ ([4]; kinase CK1δ, 1 μM compound): 0.365%
- %-inhibition, CLK1 ([5]; kinase CLK1, 1 μM compound): -0.618%
- %-inhibition of ROCK2 ([6]; kinase ROCK2, 1 μM): 3%
- %-inhibition, CLK2 ([7]; kinase CLK2, 1 μM compound): -5%
- %-inhibition of PAK5 ([8]; kinase PAK5, 1 μM): -2.62%
- %-inhibition of PAK1 ([9]; 1 µM): -1.35%
- %-inhibition, CDK9/CycT1 [10, 14]: -2.31%
- %-inhibition of MELK ([11]; kinase MELK, compound at 1 μM): -0.588%
- %-inhibition of EEF2K ([12]; kinase EEF2K, compound at 1 μM): -3.43%
- %-inhibition of LYNa ([13]; kinase LYNa, compound at 1 μM): -1.74%
